Patent US20210221848A1, “POLYMYXIN DERIVATIVES AND THEIR USE IN COMBINATION THERAPY TOGETHER WITH DIFFERENT ANTIBIOTICS” (priority 2014, published 2021)
Read-outs that look alike come from different tables or passages of the source.

Legend:
[1] = tested on: E. coli strains with elevated MICs to Polymyxin B; test: MIC against strains with elevated MICs to Polymyxin B; assay type: cell-based, Escherichia coli; conditions: Table 6D; for MIC E. coli 059: strain 059, elevated MIC to Polymyxin B; for MIC E. coli 060: strain 060, elevated MIC to Polymyxin B; for MIC E. coli 061: strain 061, elevated MIC to Polymyxin B; for MIC E. coli 058: strain 058, elevated MIC to Polymyxin B
Method: (§1) The inoculum was prepared by making a direct suspension of isolated colonies (selected from an 18-24 hour Mueller-Hinton agar plate) adjusted to the 0.5 McFarland standard. […] The assays were performed in duplicate. […] In cases where the duplicate values varied by less than 2-fold, the lower of the two values is reported. If a variation of greater than 2-fold was observed, the assay was considered non-valid. Several of the compounds were subjected to multiple tests, and where this is the case, the MIC reflects the modal value obtained.
(§2) The Further Synthesis Examples were tested against a range of Gram negative bacteria, and tested for HK-2 cell toxicity. All the worked examples, including the Synthesis and Further Synthesis Examples, were also tested against a range of Gram negative bacteria that are resistant to Polymyxin B (i.e. those strains where Polymyxin B has an elevated MIC value).

[2] = tested on: A. baumanii strains with elevated MICs to Polymyxin B; test: as above; assay type: cell-based, Acinetobacter baumannii; conditions: Table 6D; for MIC A. baumannii 053: strain 053, elevated MIC to Polymyxin B; for MIC A. baumannii 056: strain 056, elevated MIC to Polymyxin B; for MIC A. baumannii 068: strain 068, elevated MIC to Polymyxin B; for MIC A. baumannii 070: strain 070, elevated MIC to Polymyxin B
Method: as §1, §2

[3] = tested on: P. aeruginosa strains with elevated MICs to Polymyxin B; test: as above; assay type: cell-based, Pseudomonas aeruginosa; conditions: Table 6D; for MIC P. aeruginosa 066: strain 066, elevated MIC to Polymyxin B; for MIC P. aeruginosa 067: strain 067, elevated MIC to Polymyxin B; for MIC P. aeruginosa 065: strain 065, elevated MIC to Polymyxin B
Method: as §1, §2

[4] = tested on: K. pneumoniae strains with elevated MICs to Polymyxin B; test: MIC against strains with elevated MICs to Polymyxin B; assay type: cell-based, Klebsiella pneumoniae; conditions: Table 6D; for MIC K. pneumoniae 062: strain 062, elevated MIC to Polymyxin B; for MIC K. pneumoniae 063: strain 063, elevated MIC to Polymyxin B; for MIC K. pneumoniae 064: strain 064, elevated MIC to Polymyxin B; for MIC K. pneumoniae 655: strain 655, elevated MIC to Polymyxin B
Method: as §1, §2

[5] = absence of a second agent, Table 6B

Substance | MIC E. coli 059 [1] [micrograms/mL] | MIC E. coli 060 [1] [micrograms/mL] | MIC E. coli 061 [1] [micrograms/mL] | MIC A. baumannii 053 [2] [micrograms/mL] | MIC A. baumannii 056 [2] [micrograms/mL] | MIC A. baumannii 068 [2] [micrograms/mL] | MIC A. baumannii 070 [2] [micrograms/mL] | MIC P. aeruginosa 066 [3] [micrograms/mL] | MIC P. aeruginosa 067 [3] [micrograms/mL] | MIC, A. baumannii ATCC BAA-747 (A. baumannii; [5]) [micrograms/mL] | MIC, A. baumannii NCTC 13424 (A. baumannii; [5]) [micrograms/mL] | MIC, K. pneumoniae ATCC 4352 (K. pneumoniae; [5]) [micrograms/mL] | MIC K. pneumoniae 062 [4] [micrograms/mL] | MIC K. pneumoniae 063 [4] [micrograms/mL] | MIC K. pneumoniae 064 [4] [micrograms/mL] | MIC K. pneumoniae 655 [4] [micrograms/mL] | MIC, E. coli ATCC 25922 (E. coli; [5]) [micrograms/mL] | MIC, E. coli NCTC 13441 (E. coli; [5]) [micrograms/mL] | MIC, P. aeruginosa ATCC 27853 (P. aeruginosa; [5]) [micrograms/mL] | MIC, P. aeruginosa CCUG 59347 (P. aeruginosa; [5]) [micrograms/mL] | further results
3-aminomethyl- undecanoyl polymyxin B nonapeptide [Example D33] | 2 | 2 | 8 | 32 | 16 | 4 | 4 | 4 | 32 | 1 | 2 | 2 | 2 | 16 | 2 | 32 | 1 | 2 | 0.5 | 1 | –
4-(isobutyl- piperidine)-3- carbonyl L-Thr-L- Dap-polymyxin B heptapeptide [Example D83] | 8 | 2 | 8 | >64 | 32 | 8 | 16 | 2 | 32 | – | – | – | 32 | 16 | 2 | 16 | – | – | – | – | MIC E. coli 058 [1]: 4 micrograms/mL; MIC P. aeruginosa 065 [3]: 2 micrograms/mL; MIC, A. baumannii ATCC BAA-747 (A. baumannii; sole activity, Table 6C): 0.06 micrograms/mL; MIC, A. baumannii NCTC 13424 (A. baumannii; sole activity, Table 6C): 0.125 micrograms/mL; MIC, K. pneumoniae ATCC 4352 (K. pneumoniae; sole activity, Table 6C): 0.06 micrograms/mL; MIC, E. coli ATCC 25922 (E. coli; sole activity, Table 6C): 0.125 micrograms/mL; MIC, E. coli NCTC 13441 (E. coli; sole activity, Table 6C): 0.06 micrograms/mL; MIC, P. aeruginosa ATCC 27853 (P. aeruginosa; sole activity, Table 6C): 0.25 micrograms/mL; MIC, P. aeruginosa CCUG 59347 (P. aeruginosa; sole activity, Table 6C): 0.5 micrograms/mL
4-octylpiperidine-3- carbonyl polymyxin B nonapeptide [Example D35] | 0.5 | 2 | 4 | 32 | 8 | 1 | 1 | 1 | 4 | 2 | 1 | 2 | 1 | 2 | 1 | 4 | 1 | 1 | 1 | 1 | MIC E. coli 058 [1]: 1 micrograms/mL; MIC P. aeruginosa 065 [3]: 0.25 micrograms/mL; MIC, K. pneumoniae ATCC BAA-2146 (K. pneumoniae; K. pneumoniae ATCC BAA-2146, absence of a second agent, Table 6B): 2 micrograms/mL
